The values that follow are results of earlier work, collected in US6858744B2, “Dihydoxyhexanoic acid derivatives, their intermediates, and methods of making” (Pfizer Inc., priority 2002, dated 2005).

For the compound `O=C(O)C(F)(F)F` [trifluoro-acetic acid], the pKa is reported as 0.3.
